Legend:
[1] = clinical studies; cited from earlier work
[2] = system: Spontaneously hypertensive rats (SHR); test: SBP of SHR by Tail-Cuff method, first administration and continuous administration for 14 days (Examples 8-12); format: in vivo, rat
[3] = system: Spontaneously hypertensive rats (SHR); test: SBP of SHR by Tail-Cuff method, continuous intragastric administration for 8 days (Examples 1-7); format: in vivo, rat
Description: Spontaneously hypertensive rats (SHR), male, are provided by Beijing Vital River Laboratory Animal Technology Co., Ltd. The number of animal production license is SCXK (Jing) 2007-0001. Animals are raised in an observation room at the room temperature of 25±2° C. controlled by central air-conditioning system and with artificial lighting of 12 h/day. The animals are raised in separate cages sized 43×27×18 cm with 4 animals for each cage. The rats are free access to water and are fed with block fodder everyday, and the water supply is refreshed once a day. The temperature of the room for measuring the blood pressure is 26±2° C.
The blood pressure is measured by Tail-Cuff method and the hear rate is measured according to the pulse frequency. Animals are pre-trained for the blood pressure measurement for more than 2 weeks so as to adapt to the environment of measurement. Animals are placed in a isothermal bag at 37° C. to be prewarmed for 5 to 10 min for formal measurement. Blood pressures of the rats are measured from tail arteries for 2 to 3 times at rest states, and an average value is taken as each blood pressure measured value. All data are collected and preserved by a computer.
SHRs with systolic blood pressures (SBPs) >190 mmHg are selected for experiment.
Rats are randomly divided into 14 groups according to their blood pressures with each group having 7 rats. Animals are fasted overnight and measured for the blood pressure of pre-administration at the day of experiment, and then administered drugs in accordance with the following method:
The single-drug group is intragastrically administered candesartan (Can) or chlorthalidone (Chl), with the dosage of Can of 0.36 mg/kg and the dosages of Chl of 0.0675, 0.36, 0.54, 0.72, 1.125 and 2.25 mg/kg respectively;
The pharmaceutical composition is administered with 6 different doses (denoted by F1, F2, F3, F4, F5 and F6 respectively). Specifically, the ratios of the dosages of Can+Chl in all pharmaceutical compositions are:
The administration volumes are all 5 ml/kg.
Rats are continuously administered for 8 days. SBPs are measured 2, 4, 8, 12 and 24 hours after the last administration. The area under blood pressure reduction-time curve from 0 to 24 h (AUC0-24) and the maximum blood pressure reduction value are calculated.
The calculated results are expressed as mean±standard error ( x±SE); statistical treatment is performed using unpaired t test between groups to compare the significance of the average difference; the interaction between drugs are determined by using factorial analysis of variance, and P<0.05 means the difference has statistical significance.

[4] = system: patients; settings: study in 1714 patients; cited from earlier work
[5] = cited from earlier work
[6] = Chl 0.0675 mg/kg i.g. 8 days, 2 h after last administration
[7] = Chl 0.0675 mg/kg i.g. 8 days, 4 h after last administration
[8] = Chl 0.0675 mg/kg i.g. 8 days, 8 h after last administration
[9] = Chl 0.0675 mg/kg i.g. 8 days, 12 h after last administration
[10] = Chl 0.0675 mg/kg i.g. 8 days, 24 h after last administration
[11] = Chl 0.0675 mg/kg i.g. 8 days, pre-administration
[12] = Chl 0.36 mg/kg i.g. 8 days (Table 2), 2 h after last administration
[13] = Chl 0.36 mg/kg i.g. 8 days (Table 2), 4 h after last administration
[14] = Chl 0.36 mg/kg i.g. 8 days (Table 2), 8 h after last administration
[15] = Chl 0.36 mg/kg i.g. 8 days (Table 2), 12 h after last administration
[16] = Chl 0.36 mg/kg i.g. 8 days (Table 2), 24 h after last administration
[17] = Chl 0.36 mg/kg i.g. 8 days (Table 2), pre-administration
[18] = Chl 1.125 mg/kg i.g. 8 days, 2 h after last administration
[19] = Chl 1.125 mg/kg i.g. 8 days, 4 h after last administration
[20] = Chl 1.125 mg/kg i.g. 8 days, 8 h after last administration
[21] = Chl 1.125 mg/kg i.g. 8 days, 12 h after last administration
[22] = Chl 1.125 mg/kg i.g. 8 days, 24 h after last administration
[23] = Chl 1.125 mg/kg i.g. 8 days, pre-administration
[24] = Chl 2.25 mg/kg i.g. 8 days, 2 h after last administration
[25] = Chl 2.25 mg/kg i.g. 8 days, 4 h after last administration
[26] = Chl 2.25 mg/kg i.g. 8 days, 8 h after last administration
[27] = Chl 2.25 mg/kg i.g. 8 days, 12 h after last administration
[28] = Chl 2.25 mg/kg i.g. 8 days, 24 h after last administration
[29] = Chl 2.25 mg/kg i.g. 8 days, pre-administration
[30] = Chl, dosage 0.36 mg/kg in Table 3 (Example 3 title: 0.54 mg/kg), i.g. 8 days, 2 h after last administration
[31] = Chl, dosage 0.36 mg/kg in Table 3 (Example 3 title: 0.54 mg/kg), i.g. 8 days, 4 h after last administration
[32] = Chl, dosage 0.36 mg/kg in Table 3 (Example 3 title: 0.54 mg/kg), i.g. 8 days, 8 h after last administration
[33] = Chl, dosage 0.36 mg/kg in Table 3 (Example 3 title: 0.54 mg/kg), i.g. 8 days, 12 h after last administration
[34] = Chl, dosage 0.36 mg/kg in Table 3 (Example 3 title: 0.54 mg/kg), i.g. 8 days, 24 h after last administration
[35] = Chl, dosage 0.36 mg/kg in Table 3 (Example 3 title: 0.54 mg/kg), i.g. 8 days, pre-administration
[36] = Chl, dosage 0.36 mg/kg in Table 4 (Example 4 title: 0.72 mg/kg), i.g. 8 days, 2 h after last administration
[37] = Chl, dosage 0.36 mg/kg in Table 4 (Example 4 title: 0.72 mg/kg), i.g. 8 days, 4 h after last administration
[38] = Chl, dosage 0.36 mg/kg in Table 4 (Example 4 title: 0.72 mg/kg), i.g. 8 days, 8 h after last administration
[39] = Chl, dosage 0.36 mg/kg in Table 4 (Example 4 title: 0.72 mg/kg), i.g. 8 days, 12 h after last administration
[40] = Chl, dosage 0.36 mg/kg in Table 4 (Example 4 title: 0.72 mg/kg), i.g. 8 days, 24 h after last administration
[41] = Chl, dosage 0.36 mg/kg in Table 4 (Example 4 title: 0.72 mg/kg), i.g. 8 days, pre-administration
[42] = 12.5-25 mg/d of chlorthalidone, clinical studies

For `NS(=O)(=O)c1cc(C2(O)NC(=O)c3ccccc32)ccc1Cl` (stereo not drawn) [Chl, Chlorthalidone], the “valid control rate of blood pressure” value [1] is given as 68.2%, the AUC0-14d ([2]; Chl 0.15625 mg/kg i.g. for 14 days) is given as −36.0 mmHg · d and the AUC0-24h ([2]; Chl 0.15625 mg/kg i.g., after first administration) is given as −47.0 mmHg · h. The “antihypertensive effect after the administration” value ([3]; Chl 0.0675 mg/kg) was “no significant antihypertensive effect”, the “AUC0-24h (area under blood pressure reduction-time curve)” value ([3]; Chl 0.0675 mg/kg i.g. 8 days) was −9.0 mmHg · h and the “maximum reduction of the blood pressure” value ([3]; Chl 0.0675 mg/kg i.g. 8 days) was −4.7 mmHg. The SBP [3, 6] was 203 mmHg, the “SBP difference value compared with the basic value” (“SBP difference value” for short) [3, 6] was “(−2.1 mmHg” and the SBP [3, 7] was 206 mmHg. For the same compound, the “SBP difference value” [3, 7] was “(0.6 mmHg”, the SBP [3, 8] was 204 mmHg and the “SBP difference value” [3, 8] was “(−1.4 mmHg”. The SBP [3, 9] was 203 mmHg, the “SBP difference value” [3, 9] was “(−2.0 mmHg” and the SBP [3, 10] was 207 mmHg. The “SBP difference value” [3, 10] was “(2.1 mmHg”, the SBP [3, 11] was 208 mmHg and the “SBP difference value” [3, 11] was “(2.3 mmHg”. The “AUC0-24h (area under blood pressure reduction-time curve)” value ([3]; Chl 0.36 mg/kg i.g. 8 days) was −26.0 mmHg · h, the “maximum reduction of the blood pressure” value ([3]; Chl 0.36 mg/kg i.g. 8 days) was −3.7 mmHg and the SBP [3, 12] was 205 mmHg. The “SBP difference value” [3, 12] was “(−0.6 mmHg”, the SBP [3, 13] was 204 mmHg and the “SBP difference value” [3, 13] was “(−1.3 mmHg”. For the same compound, the SBP [3, 14] was 204 mmHg, the “SBP difference value” [3, 14] was “(−1.3 mmHg” and the SBP [3, 15] was 204 mmHg. The “SBP difference value” [3, 15] was “(−1.4 mmHg”, the SBP [3, 16] was 205 mmHg and the “SBP difference value” [3, 16] was “(−0.4 mmHg”. For the same compound, the SBP [3, 17] was 204 mmHg, the “SBP difference value” [3, 17] was “(−1.4 mmHg” and the “AUC0-24h (area under blood pressure reduction-time curve)” value ([3]; Chl 0.54 mg/kg i.g. 8 days) was −57.0 mmHg · h. The “maximum reduction of the blood pressure” value ([3]; Chl 0.54 mg/kg i.g. 8 days) was −4.7 mmHg, the “AUC0-24h (area under blood pressure reduction-time curve)” value ([3]; Chl 0.72 mg/kg i.g. 8 days) was −79.0 mmHg · h and the “maximum reduction of the blood pressure” value ([3]; Chl 0.72 mg/kg i.g. 8 days) was −5.7 mmHg. For the same compound, the “time after administration at which an antihypertensive effect is seen” value ([3]; Chl 1.125 mg/kg) was 4 h, the “AUC0-24h (area under blood pressure reduction-time curve)” value ([3]; Chl 1.125 mg/kg i.g. 8 days) was −110.0 mmHg · h and the “maximum reduction of the blood pressure” value ([3]; Chl 1.125 mg/kg i.g. 8 days) was −12.0 mmHg. For the same compound, the SBP [3, 18] was 205 mmHg, the “SBP difference value” [3, 18] was “(−2.9 mmHg” and the SBP [3, 19] was 199 mmHg. The “SBP difference value” [3, 19] was “(−8.9 mmHg”, the SBP [3, 20] was 201 mmHg and the “SBP difference value” [3, 20] was “(−6.3 mmHg”. For the same compound, the SBP [3, 21] was 202 mmHg, the “SBP difference value” [3, 21] was “(−6.0 mmHg” and the SBP [3, 22] was 207 mmHg. For the same compound, the “SBP difference value” [3, 22] was “(−0.4 mmHg”, the SBP [3, 23] was 206 mmHg and the “SBP difference value” [3, 23] was “(−1.7 mmHg”. For the same compound, the “period after administration with significant antihypertensive effect” value ([3]; Chl 2.25 mg/kg) was 2 to 12 h, the “AUC0-24h (area under blood pressure reduction-time curve)” value ([3]; Chl 2.25 mg/kg i.g. 8 days) was −199.0 mmHg · h and the “maximum reduction of the blood pressure” value ([3]; Chl 2.25 mg/kg i.g. 8 days) was −15.0 mmHg. For the same compound, the SBP [3, 24] was 198 mmHg, the “SBP difference value” [3, 24] was “(−8.3 mmHg” and the SBP [3, 25] was 192 mmHg. The “SBP difference value” [3, 25] was “(−11.3 mmHg”, the SBP [3, 26] was 195 mmHg and the “SBP difference value” [3, 26] was “(−11.1 mmHg”. The SBP [3, 27] was 197 mmHg, the “SBP difference value” [3, 27] was “(−9.4 mmHg” and the SBP [3, 28] was 202 mmHg. For the same compound, the “SBP difference value” [3, 28] was “(−4.6 mmHg”, the SBP [3, 29] was 205 mmHg and the “SBP difference value” [3, 29] was “(−1.3 mmHg”. The “influence on the maximum reduction of SBP and the AUC compared with the blank control group” value ([3]; Chl 0.0675, 0.36, 0.54 and 0.72 mg/kg) was “no significant influence”, the “influence on the maximum reduction of SBP and the AUC compared with the blank control group” value ([3]; Chl 1.125 and 2.25 mg/kg) was “significant decrease” and the SBP [3, 30] was 202 mmHg. For the same compound, the “SBP difference value” [3, 30] was “(−2.0 mmHg”, the SBP [3, 31] was 202 mmHg and the “SBP difference value” [3, 31] was “(−2.0 mmHg”. For the same compound, the SBP [3, 32] was 201 mmHg, the “SBP difference value” [3, 32] was “(−3.7 mmHg” and the SBP [3, 33] was 203 mmHg. For the same compound, the “SBP difference value” [3, 33] was “(−1.9 mmHg”, the SBP [3, 34] was 202 mmHg and the “SBP difference value” [3, 34] was “(−2.6 mmHg”. For the same compound, the SBP [3, 35] was 203 mmHg, the “SBP difference value” [3, 35] was “(−1.6 mmHg” and the SBP [3, 36] was 203 mmHg. The “SBP difference value” [3, 36] was “(−3.9 mmHg”, the SBP [3, 37] was 202 mmHg and the “SBP difference value” [3, 37] was “(−4.9 mmHg”. For the same compound, the SBP [3, 38] was 202 mmHg, the “SBP difference value” [3, 38] was “(−4.9 mmHg” and the SBP [3, 39] was 205 mmHg. For the same compound, the “SBP difference value” [3, 39] was “(−2.6 mmHg”, the SBP [3, 40] was 205 mmHg and the “SBP difference value” [3, 40] was “(−2.4 mmHg”. The SBP [3, 41] was 205 mmHg, the “SBP difference value” [3, 41] was “(−2.3 mmHg” and the “reduction of SBP compared with the basic value” [4] was 12.7-15.9 mmHg. For the same compound, the “lowering of 24-hour blood pressure” value [5, 42] was 12.4 mmHg, the “lowering of night-time blood pressure” value [5, 42] was 13.5 mmHg and the “antihypertensive efficacy relative to that of hydrochlorothiazide” value ([5]; according to Khoska) was 1.5-2 times.

— patent publication US9216169B2, “Pharmaceutical composition comprising candesartan or ester thereof and chlortalidone, and use thereof” (TIANJIN INSTITUTE OF PHARMACEUTICAL RESEARCH, priority 2011, dated 2015)
